Measured values from PubChem BioAssay (NCI).
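Cells were grown in 96-well plates and exposed to each compound for 48 hours at five concentrations; endpoints were interpolated linearly between bracketing concentrations, or set to the highest concentration if not reached. At the TGI there is no net growth.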

Legend:
Experiment in all cases: DTP human tumour cell line panel, 48 h
MCF7 breast = system: MCF7 breast
NCI-H226 lung = system: NCI-H226 lung
MOLT-4 leukemia = system: MOLT-4 leukemia
SN12C renal = system: SN12C renal
SK-MEL-5 melanoma = system: SK-MEL-5 melanoma
SNB-75 CNS = system: SNB-75 CNS
OVCAR-8 ovarian = system: OVCAR-8 ovarian
786-0 renal = system: 786-0 renal
U251 CNS = system: U251 CNS
EKVX NSCLC = system: EKVX NSCLC
MDA-MB-231 breast = system: MDA-MB-231 breast
NCI-H522 lung = system: NCI-H522 lung

CCOC(=O)c1cc2cc(CSc3ccccc3)ccc2oc1=O
TGI (MCF7 breast): > 100 µM
TGI (NCI-H226 lung): > 100 µM
TGI (MOLT-4 leukemia): > 100 µM
TGI (SN12C renal): > 100 µM
TGI (SK-MEL-5 melanoma): > 100 µM
TGI (SNB-75 CNS): > 100 µM
TGI (OVCAR-8 ovarian): > 100 µM
TGI (786-0 renal): > 100 µM
TGI (U251 CNS): > 100 µM
TGI (EKVX NSCLC): > 100 µM
TGI (MDA-MB-231 breast): > 100 µM
TGI (NCI-H522 lung): > 100 µM

CSCCCNC(=O)c1csc([C@@H](CSC)NC(=O)CCNC(=O)[C@@H](NC(=O)OCC(Br)(Br)Br)C(C)O)n1 (stereo partly drawn)
TGI (MCF7 breast): > 100 µM
TGI (NCI-H226 lung): > 100 µM
TGI (MOLT-4 leukemia): > 100 µM
TGI (SN12C renal): > 100 µM
TGI (SK-MEL-5 melanoma): > 100 µM
TGI (SNB-75 CNS): > 100 µM
TGI (OVCAR-8 ovarian): > 100 µM
TGI (786-0 renal): > 100 µM
TGI (U251 CNS): > 100 µM
TGI (EKVX NSCLC): > 100 µM
TGI (MDA-MB-231 breast): > 100 µM
TGI (NCI-H522 lung): > 100 µM

O=C(O)c1cc2c(cc1S(=O)(=O)O)C1C(C3C2C2(Cl)C(Cl)=C(Cl)C3(Cl)C2(Cl)Cl)C2(Cl)C(Cl)=C(Cl)C1(Cl)C2(Cl)Cl (stereo not drawn)
TGI (MCF7 breast): > 100 µM
TGI (NCI-H226 lung): 49 µM
TGI (MOLT-4 leukemia): > 100 µM
TGI (SN12C renal): 46.4 µM
TGI (SK-MEL-5 melanoma): > 100 µM
TGI (SNB-75 CNS): > 100 µM
TGI (OVCAR-8 ovarian): > 100 µM
TGI (786-0 renal): > 100 µM
TGI (U251 CNS): > 100 µM
TGI (EKVX NSCLC): > 100 µM
TGI (MDA-MB-231 breast): 50.9 µM
TGI (NCI-H522 lung): 46.8 µM

Cc1[nH]n(-c2nc(O)c(C)c(=O)[nH]2)c(=O)c1CCO
TGI (MCF7 breast): > 100 µM
TGI (NCI-H226 lung): > 100 µM
TGI (MOLT-4 leukemia): > 100 µM
TGI (SN12C renal): > 100 µM
TGI (SK-MEL-5 melanoma): > 100 µM
TGI (SNB-75 CNS): > 100 µM
TGI (OVCAR-8 ovarian): > 100 µM
TGI (786-0 renal): > 100 µM
TGI (U251 CNS): > 100 µM
TGI (EKVX NSCLC): > 100 µM
TGI (MDA-MB-231 breast): > 100 µM
TGI (NCI-H522 lung): > 100 µM

CO/N=C1/C(n2[nH]c(=O)n(-c3ccccc3)c2=O)C2C=CC1n1c(=O)n(-c3ccccc3)c(=O)n12 (stereo not drawn)
TGI (MCF7 breast): > 100 µM
TGI (NCI-H226 lung): > 100 µM
TGI (MOLT-4 leukemia): > 100 µM
TGI (SN12C renal): > 100 µM
TGI (SK-MEL-5 melanoma): > 100 µM
TGI (SNB-75 CNS): > 100 µM
TGI (OVCAR-8 ovarian): > 100 µM
TGI (786-0 renal): > 100 µM
TGI (U251 CNS): > 100 µM
TGI (EKVX NSCLC): > 100 µM
TGI (MDA-MB-231 breast): > 100 µM
TGI (NCI-H522 lung): > 100 µM

COc1ccc(NC(C)=O)c(C(=O)CCNC(C)=O)c1
TGI (MCF7 breast): > 100 µM
TGI (NCI-H226 lung): > 100 µM
TGI (MOLT-4 leukemia): > 100 µM
TGI (SN12C renal): > 100 µM
TGI (SK-MEL-5 melanoma): > 100 µM
TGI (SNB-75 CNS): > 100 µM
TGI (OVCAR-8 ovarian): > 100 µM
TGI (786-0 renal): > 100 µM
TGI (U251 CNS): > 100 µM
TGI (EKVX NSCLC): > 100 µM
TGI (MDA-MB-231 breast): > 100 µM
TGI (NCI-H522 lung): > 100 µM

Cc1ccnc2c1c(=O)c1ccccc1n2C
TGI (MCF7 breast): > 100 µM
TGI (NCI-H226 lung): > 100 µM
TGI (MOLT-4 leukemia): 73.8 µM
TGI (SN12C renal): > 100 µM
TGI (SK-MEL-5 melanoma): 47.2 µM
TGI (SNB-75 CNS): 56.3 µM
TGI (OVCAR-8 ovarian): > 100 µM
TGI (786-0 renal): > 100 µM
TGI (U251 CNS): > 100 µM
TGI (EKVX NSCLC): > 100 µM
TGI (MDA-MB-231 breast): > 100 µM
TGI (NCI-H522 lung): 65.7 µM

O=[N+]([O-])C(=C/C1CCCCC1)/C(=C\C1CCCCC1)[N+](=O)[O-]
TGI (MCF7 breast): 26.4 µM
TGI (NCI-H226 lung): 17.9 µM
TGI (MOLT-4 leukemia): > 26.1 µM
TGI (SN12C renal): 11.5 µM
TGI (SK-MEL-5 melanoma): 23.1 µM
TGI (SNB-75 CNS): 31.3 µM
TGI (OVCAR-8 ovarian): > 27.3 µM
TGI (786-0 renal): 4.11 µM
TGI (U251 CNS): 14.7 µM
TGI (EKVX NSCLC): 24.9 µM
TGI (MDA-MB-231 breast): 8.98 µM
TGI (NCI-H522 lung): 4.3 µM

N#Cc1nsnc1-c1nc(-c2nsnc2C#N)nc(-c2nsnc2C#N)n1
TGI (MCF7 breast): > 100 µM
TGI (NCI-H226 lung): > 100 µM
TGI (MOLT-4 leukemia): > 100 µM
TGI (SN12C renal): > 100 µM
TGI (SK-MEL-5 melanoma): > 100 µM
TGI (SNB-75 CNS): > 100 µM
TGI (OVCAR-8 ovarian): > 100 µM
TGI (786-0 renal): > 100 µM
TGI (U251 CNS): > 100 µM
TGI (EKVX NSCLC): > 100 µM
TGI (MDA-MB-231 breast): > 100 µM
TGI (NCI-H522 lung): > 100 µM
